Experimental data taken from ChEMBL document CHEMBL1201862, “PubChem BioAssay data set” (2004).
Values joined by “and” are separate entries in the source; they are usually repeats but may differ in a detail not shown here. Identical values can stand only once.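 These data come from cells grown in 96-well plates and exposed to compound for 48 hours at five concentrations. Abbreviation: GI50, concentration required for 50% inhibition of growth.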 Active and inactive are the calls of the source. Cut-off read from the data, not from the text of the source: active = GI50 up to about 1.1 µM and inactive = higher.

How the values were obtained:
Assay in all cases: NCI tumour cell line growth inhibition, 48 h
OVCAR-3 = test system: OVCAR-3
SNB-19 = test system: SNB-19
K562 = test system: K562
HOP-92 = test system: HOP-92
COLO 205 = test system: COLO 205
RXF 393 = test system: RXF 393
SF-539 = test system: SF-539
MOLT-4 = test system: MOLT-4
PC-3 = test system: PC-3
TK-10 = test system: TK-10
CAKI-1 = test system: CAKI-1
UACC-62 = test system: UACC-62
SR = test system: SR
DU-145 = test system: DU-145
SK-OV-3 = test system: SK-OV-3
A498 = test system: A498
HCT-15 = test system: HCT-15
786-0 = test system: 786-0
LOX IMVI = test system: LOX IMVI
NCI-H522 = test system: NCI-H522

Q: Which GI50 (OVCAR-3) does the source give for Cc1cc(NS(=O)(=O)c2ccc(NC(NC(=O)OC(C)C)(C(F)(F)F)C(F)(F)F)cc2)nc(C)n1 here?
A: > 100 µM (inactive)

Q: And the GI50 (SNB-19)?
A: > 100 µM (inactive)

Q: What about the GI50 (K562) of the same molecule?
A: > 100 µM (inactive)

Q: What about the GI50 (HOP-92) of the same molecule?
A: > 100 µM (inactive)

Q: And the GI50 (COLO 205)?
A: > 100 µM (inactive)

Q: And the GI50 (RXF 393)?
A: > 100 µM (inactive)

Q: What about the GI50 (SF-539) of the same molecule?
A: > 100 µM (inactive)

Q: What about the GI50 (MOLT-4) of the same molecule?
A: > 100 µM (inactive)

Q: What about the GI50 (PC-3) of the same molecule?
A: > 100 µM (inactive)

Q: What about the GI50 (TK-10) of the same molecule?
A: > 100 µM (inactive)

Q: And the GI50 (CAKI-1)?
A: > 100 µM (inactive)

Q: And the GI50 (UACC-62)?
A: > 100 µM (inactive)

Q: What about the GI50 (SR) of the same molecule?
A: > 100 µM (inactive)

Q: And the GI50 (DU-145)?
A: > 100 µM (inactive)

Q: What about the GI50 (SK-OV-3) of the same molecule?
A: > 100 µM (inactive)

Q: And the GI50 (A498)?
A: > 100 µM (inactive)

Q: And the GI50 (HCT-15)?
A: > 100 µM

Q: And the GI50 (786-0)?
A: > 100 µM (inactive)

Q: And the GI50 (LOX IMVI)?
A: > 100 µM (inactive)

Q: What does the source list for Cc1cn(C2CCC(/C=N\O)O2)c(=O)[nH]c1=O (centres undefined)?
A: GI50 (OVCAR-3): > 100 µM (inactive); GI50 (SNB-19): > 100 µM (inactive); GI50 (K562): > 100 µM (inactive); GI50 (HOP-92): > 100 µM (inactive); GI50 (COLO 205): > 100 µM (inactive); GI50 (RXF 393): > 100 µM (inactive); GI50 (SF-539): > 100 µM (inactive); GI50 (MOLT-4): > 100 µM (inactive); GI50 (PC-3): > 100 µM (inactive); GI50 (CAKI-1): > 100 µM (inactive); GI50 (UACC-62): > 100 µM (inactive); GI50 (SR): > 100 µM (inactive); GI50 (DU-145): > 100 µM (inactive); GI50 (A498): > 100 µM (inactive); GI50 (HCT-15): > 100 µM; GI50 (786-0): > 100 µM (inactive); GI50 (LOX IMVI): > 100 µM (inactive)

Q: For COC(=O)C1(C(=O)OC)N=C(C)OC1C(C)C (centres undefined), which GI50 (OVCAR-3) is on record?
A: > 100 µM (inactive)

Q: And the GI50 (SNB-19)?
A: > 100 µM (inactive)

Q: What about the GI50 (K562) of the same molecule?
A: > 100 µM (inactive)

Q: And the GI50 (HOP-92)?
A: > 100 µM (inactive)

Q: And the GI50 (COLO 205)?
A: > 100 µM (inactive)

Q: What about the GI50 (RXF 393) of the same molecule?
A: > 100 µM (inactive)

Q: What about the GI50 (MOLT-4) of the same molecule?
A: > 100 µM (inactive)

Q: What about the GI50 (PC-3) of the same molecule?
A: > 100 µM (inactive)

Q: What about the GI50 (TK-10) of the same molecule?
A: > 100 µM (inactive)

Q: What about the GI50 (CAKI-1) of the same molecule?
A: > 100 µM (inactive)

Q: What about the GI50 (SR) of the same molecule?
A: > 100 µM (inactive)

Q: And the GI50 (DU-145)?
A: > 100 µM (inactive)

Q: And the GI50 (SK-OV-3)?
A: > 100 µM (inactive)

Q: What about the GI50 (A498) of the same molecule?
A: > 100 µM (inactive)

Q: And the GI50 (HCT-15)?
A: > 100 µM

Q: What about the GI50 (786-0) of the same molecule?
A: > 100 µM (inactive)

Q: And the GI50 (LOX IMVI)?
A: > 100 µM (inactive)

Q: How did the GI50 (OVCAR-3) turn out when COc1ccc(-c2c(C#N)c(N)n(C3OC(CO)C(O)C(O)C3O)c(=S)c2C#N)cc1 (centres undefined) was run?
A: > 100 µM (inactive) and 97.7 µM (inactive)

Q: And the GI50 (SNB-19)?
A: > 100 µM (inactive)

Q: And the GI50 (K562)?
A: > 100 µM (inactive)

Q: And the GI50 (HOP-92)?
A: 20.2 µM (inactive)

Q: And the GI50 (RXF 393)?
A: > 100 µM (inactive)

Q: And the GI50 (SF-539)?
A: > 100 µM (inactive)

Q: What about the GI50 (MOLT-4) of the same molecule?
A: > 100 µM (inactive) and 68.2 µM (inactive)

Q: And the GI50 (PC-3)?
A: > 100 µM (inactive) and 99.1 µM (inactive)

Q: What about the GI50 (TK-10) of the same molecule?
A: > 100 µM (inactive)

Q: And the GI50 (CAKI-1)?
A: > 100 µM (inactive)

Q: And the GI50 (UACC-62)?
A: > 100 µM (inactive)

Q: And the GI50 (SR)?
A: > 100 µM (inactive)

Q: What about the GI50 (DU-145) of the same molecule?
A: > 100 µM (inactive)

Q: What about the GI50 (SK-OV-3) of the same molecule?
A: > 100 µM (inactive)

Q: What about the GI50 (A498) of the same molecule?
A: > 100 µM (inactive) and 52.6 µM (inactive)

Q: What about the GI50 (HCT-15) of the same molecule?
A: > 100 µM

Q: What about the GI50 (786-0) of the same molecule?
A: > 100 µM (inactive)

Q: And the GI50 (LOX IMVI)?
A: > 100 µM (inactive) and 77.4 µM (inactive)

Q: With C=CC[C@]12C=C(OC)[C@@H](O)[C@](OC)(C(c3cc(OC)c4c(c3)OCO4)[C@H]1C)[C@H]2OC(C)=O (some centres undefined) as the molecule, how does the GI50 (OVCAR-3) read?
A: > 100 µM (inactive)

Q: And the GI50 (SNB-19)?
A: > 100 µM (inactive)

Q: What about the GI50 (K562) of the same molecule?
A: > 100 µM (inactive)

Q: What about the GI50 (HOP-92) of the same molecule?
A: 83.6 µM (inactive)

Q: And the GI50 (COLO 205)?
A: > 100 µM (inactive)

Q: What about the GI50 (NCI-H522) of the same molecule?
A: > 100 µM (inactive)

Q: What about the GI50 (RXF 393) of the same molecule?
A: > 100 µM (inactive)

Q: And the GI50 (SF-539)?
A: > 100 µM (inactive)

Q: What about the GI50 (MOLT-4) of the same molecule?
A: 67.5 µM (inactive)

Q: What about the GI50 (PC-3) of the same molecule?
A: 62.5 µM (inactive)

Q: And the GI50 (TK-10)?
A: > 100 µM (inactive)

Q: And the GI50 (CAKI-1)?
A: > 100 µM (inactive)

Q: What about the GI50 (UACC-62) of the same molecule?
A: > 100 µM (inactive)

Q: What about the GI50 (SR) of the same molecule?
A: > 100 µM (inactive)

Q: And the GI50 (DU-145)?
A: > 100 µM (inactive)

Q: And the GI50 (SK-OV-3)?
A: 61.1 µM (inactive)

Q: And the GI50 (A498)?
A: > 100 µM (inactive)

Q: And the GI50 (HCT-15)?
A: > 100 µM

Q: What about the GI50 (786-0) of the same molecule?
A: > 100 µM (inactive)

Q: What does the source list for O=C(O)[C@@H]1C[C@@H](O)CN1?
A: GI50 (OVCAR-3): > 100 µM (inactive); GI50 (SNB-19): > 100 µM (inactive); GI50 (K562): > 100 µM (inactive); GI50 (HOP-92): > 100 µM (inactive); GI50 (COLO 205): > 100 µM (inactive); GI50 (RXF 393): > 100 µM (inactive); GI50 (SF-539): > 100 µM (inactive); GI50 (MOLT-4): > 100 µM (inactive); GI50 (PC-3): > 100 µM (inactive); GI50 (TK-10): > 100 µM (inactive); GI50 (CAKI-1): > 100 µM (inactive); GI50 (UACC-62): > 100 µM (inactive); GI50 (SR): > 100 µM (inactive); GI50 (DU-145): > 100 µM (inactive); GI50 (SK-OV-3): > 100 µM (inactive); GI50 (A498): > 100 µM (inactive); GI50 (HCT-15): > 100 µM; GI50 (786-0): > 100 µM (inactive); GI50 (LOX IMVI): > 100 µM (inactive)
